Common to all, as to experiment: PME-1 inhibition and serine hydrolase selectivity by ABPP – cell lysate, gel-based competitive ABPP, fluorescence, powder samples, selectivity assay, late-stage follow-up (AID 463149);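 also: 0% = DMSO-treated band intensity and 100% = blank gel background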
Assay [1] addresses Acylamino-acid-releasing enzyme (Homo sapiens) (UniProt P13798). The following applies: HeLa soluble proteome, FP-Rh fluorescence, measured here: Anti-Target APEH, stronger effect = higher value.
For the next assay, the system named is Anti-Target ABHD10. The following applies: HeLa soluble proteome, FP-Rh fluorescence, stronger effect = higher value.
The target of assay [2] is Protein phosphatase methylesterase 1 (Homo sapiens) (UniProt Q9Y570). To be noted: HeLa soluble proteome, FP-Rh fluorescence, stronger effect = higher value.
Protein phosphatase methylesterase 1 (Homo sapiens), sequence (Q9Y570 whole entry, looked up): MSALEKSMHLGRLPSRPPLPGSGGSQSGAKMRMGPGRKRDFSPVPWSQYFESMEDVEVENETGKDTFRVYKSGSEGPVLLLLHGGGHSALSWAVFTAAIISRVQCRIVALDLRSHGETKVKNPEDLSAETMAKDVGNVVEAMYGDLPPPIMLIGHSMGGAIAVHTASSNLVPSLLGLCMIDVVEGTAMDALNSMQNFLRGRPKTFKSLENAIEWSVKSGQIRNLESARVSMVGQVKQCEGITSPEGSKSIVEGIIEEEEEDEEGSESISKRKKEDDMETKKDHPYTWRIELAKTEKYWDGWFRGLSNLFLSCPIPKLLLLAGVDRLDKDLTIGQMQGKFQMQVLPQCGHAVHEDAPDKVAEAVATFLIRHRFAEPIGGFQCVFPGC
Another assay relates to Anti-Target CES. The following applies: HeLa soluble proteome, FP-Rh fluorescence, measured here: Anti-Target CES, stronger effect = higher value.
Assay [3] concerns the target Fatty acid synthase (Homo sapiens) (UniProt P49327). To be noted: HeLa soluble proteome, FP-Rh fluorescence, measured here: Anti-Target FAS, stronger effect = higher value.
A further assay has as its system Anti-Target PREP. The following applies: HeLa soluble proteome, FP-Rh fluorescence, measured here: Anti-Target PREP, stronger effect = higher value.
Where [4] appears, read: measured here: Anti-Target ABHD10, at 1 µM.
The mark [5] stands for this setting: measured here: Anti-Target ABHD10, at 20 µM.

Acylamino-acid-releasing enzyme (Homo sapiens), sequence (P13798 whole entry, looked up): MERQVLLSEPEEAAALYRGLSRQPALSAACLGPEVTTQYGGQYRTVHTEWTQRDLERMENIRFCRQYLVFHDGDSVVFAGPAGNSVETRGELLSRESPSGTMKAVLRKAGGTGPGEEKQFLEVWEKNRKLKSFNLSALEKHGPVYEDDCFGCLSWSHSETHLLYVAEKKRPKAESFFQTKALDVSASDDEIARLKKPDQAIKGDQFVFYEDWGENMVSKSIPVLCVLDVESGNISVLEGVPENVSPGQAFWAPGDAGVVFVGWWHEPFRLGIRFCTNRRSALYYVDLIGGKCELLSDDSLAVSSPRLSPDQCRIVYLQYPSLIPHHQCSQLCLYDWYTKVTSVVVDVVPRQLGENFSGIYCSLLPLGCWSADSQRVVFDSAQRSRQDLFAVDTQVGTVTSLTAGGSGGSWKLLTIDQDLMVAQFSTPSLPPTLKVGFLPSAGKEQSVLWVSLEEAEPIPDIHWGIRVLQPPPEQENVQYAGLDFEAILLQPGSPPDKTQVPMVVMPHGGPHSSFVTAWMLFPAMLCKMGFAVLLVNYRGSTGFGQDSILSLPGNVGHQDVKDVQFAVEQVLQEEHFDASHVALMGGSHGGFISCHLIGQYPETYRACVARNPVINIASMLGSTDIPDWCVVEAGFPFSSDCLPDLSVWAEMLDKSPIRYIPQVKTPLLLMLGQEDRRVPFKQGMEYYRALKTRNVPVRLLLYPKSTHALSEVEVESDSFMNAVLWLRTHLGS
Fatty acid synthase (Homo sapiens), sequence (P49327 whole entry, looked up): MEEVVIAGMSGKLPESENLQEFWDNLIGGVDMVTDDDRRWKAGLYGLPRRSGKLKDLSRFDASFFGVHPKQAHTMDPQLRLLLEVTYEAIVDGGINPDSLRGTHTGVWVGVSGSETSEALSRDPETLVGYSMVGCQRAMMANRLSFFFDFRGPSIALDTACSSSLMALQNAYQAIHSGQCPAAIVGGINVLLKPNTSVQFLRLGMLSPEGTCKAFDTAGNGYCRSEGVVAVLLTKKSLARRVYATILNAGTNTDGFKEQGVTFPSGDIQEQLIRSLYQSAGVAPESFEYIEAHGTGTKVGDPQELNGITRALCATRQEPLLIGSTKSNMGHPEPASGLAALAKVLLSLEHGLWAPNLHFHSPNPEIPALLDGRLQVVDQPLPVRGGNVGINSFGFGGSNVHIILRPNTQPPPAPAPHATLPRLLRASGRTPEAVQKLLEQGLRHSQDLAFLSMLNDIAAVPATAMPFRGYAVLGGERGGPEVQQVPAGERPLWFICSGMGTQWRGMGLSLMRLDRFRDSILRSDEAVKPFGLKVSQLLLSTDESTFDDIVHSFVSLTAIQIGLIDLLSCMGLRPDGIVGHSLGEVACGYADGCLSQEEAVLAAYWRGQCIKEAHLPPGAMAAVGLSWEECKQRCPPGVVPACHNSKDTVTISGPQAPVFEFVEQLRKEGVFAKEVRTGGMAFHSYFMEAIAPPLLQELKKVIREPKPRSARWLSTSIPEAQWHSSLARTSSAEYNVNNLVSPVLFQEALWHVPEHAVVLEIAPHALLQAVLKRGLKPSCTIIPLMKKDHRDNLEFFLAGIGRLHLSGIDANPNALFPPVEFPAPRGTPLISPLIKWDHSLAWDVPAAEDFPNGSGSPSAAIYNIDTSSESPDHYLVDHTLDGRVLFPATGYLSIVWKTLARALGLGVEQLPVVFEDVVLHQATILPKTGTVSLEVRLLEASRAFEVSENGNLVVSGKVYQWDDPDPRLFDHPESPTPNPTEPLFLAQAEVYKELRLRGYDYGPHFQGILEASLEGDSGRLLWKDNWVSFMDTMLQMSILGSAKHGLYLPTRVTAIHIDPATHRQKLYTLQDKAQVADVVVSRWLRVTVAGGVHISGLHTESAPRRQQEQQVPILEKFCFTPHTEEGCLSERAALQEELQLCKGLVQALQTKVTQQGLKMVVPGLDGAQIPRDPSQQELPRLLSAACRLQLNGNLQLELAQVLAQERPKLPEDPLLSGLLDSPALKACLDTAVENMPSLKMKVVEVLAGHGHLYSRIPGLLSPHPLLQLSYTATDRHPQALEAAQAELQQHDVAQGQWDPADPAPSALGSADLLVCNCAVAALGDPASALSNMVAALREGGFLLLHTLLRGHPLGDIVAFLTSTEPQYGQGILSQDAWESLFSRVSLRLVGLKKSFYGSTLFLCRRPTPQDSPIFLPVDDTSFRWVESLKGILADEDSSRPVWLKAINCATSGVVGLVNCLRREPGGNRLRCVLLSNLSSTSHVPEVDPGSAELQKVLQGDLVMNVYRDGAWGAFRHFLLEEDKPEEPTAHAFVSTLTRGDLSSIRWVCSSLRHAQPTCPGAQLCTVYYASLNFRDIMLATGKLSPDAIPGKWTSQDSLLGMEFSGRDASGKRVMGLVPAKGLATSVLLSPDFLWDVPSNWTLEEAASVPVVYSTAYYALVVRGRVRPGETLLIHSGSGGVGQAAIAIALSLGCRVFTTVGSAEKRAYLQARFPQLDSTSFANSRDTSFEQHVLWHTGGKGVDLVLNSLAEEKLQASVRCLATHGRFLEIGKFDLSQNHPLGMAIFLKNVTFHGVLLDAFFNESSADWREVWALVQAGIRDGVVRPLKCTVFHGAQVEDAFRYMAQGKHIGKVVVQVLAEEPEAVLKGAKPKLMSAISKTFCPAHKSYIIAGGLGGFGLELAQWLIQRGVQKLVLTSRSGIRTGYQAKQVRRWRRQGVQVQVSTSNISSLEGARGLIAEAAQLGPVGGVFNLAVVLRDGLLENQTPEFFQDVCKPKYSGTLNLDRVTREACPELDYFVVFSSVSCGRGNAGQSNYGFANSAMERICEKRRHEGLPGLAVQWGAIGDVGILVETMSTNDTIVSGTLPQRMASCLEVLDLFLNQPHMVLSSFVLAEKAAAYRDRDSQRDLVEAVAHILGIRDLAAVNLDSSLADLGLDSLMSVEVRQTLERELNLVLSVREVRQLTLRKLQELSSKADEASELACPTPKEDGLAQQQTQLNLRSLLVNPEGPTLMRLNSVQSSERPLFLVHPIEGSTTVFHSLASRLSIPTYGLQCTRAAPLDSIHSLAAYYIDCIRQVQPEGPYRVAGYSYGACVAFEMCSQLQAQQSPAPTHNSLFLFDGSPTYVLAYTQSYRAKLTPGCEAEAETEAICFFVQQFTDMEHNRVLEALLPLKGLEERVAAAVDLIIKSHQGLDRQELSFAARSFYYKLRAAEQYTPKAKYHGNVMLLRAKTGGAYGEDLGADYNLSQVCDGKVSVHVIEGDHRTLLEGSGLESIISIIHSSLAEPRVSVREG

`COC(=O)N1C(=O)[C@@](CC(C)C)(c2ccccc2)N1C(=O)OC`: the inhibition (in general, the relative decrease from the control value, in per cent) was 0% in assay [1] (at 1 µM); > 50% in assay [1] (at 20 µM); 0% in the assay with Anti-Target ABHD10 (setting [4]); 0% in the assay on Anti-Target ABHD10 (setting [5]); 100% in assay [2] (PME-1, inhibition, at 1 µM); 100% in assay [2] (PME-1, inhibition, at 20 µM). Besides, the inhibition in the assay on Anti-Target CES (at 1 µM) was > 50%; in the assay on Anti-Target CES (at 20 µM), > 50%; in assay [3] (at 1 µM), 0%; in assay [3] (at 20 µM) it was > 50%; in the assay on Anti-Target PREP (at 1 µM), 0%; in the assay with Anti-Target PREP (at 20 µM), 0%.

As for `CCOC(=O)N1C(=O)[C@@](c2ccc(Cl)cc2)(C(C)C)N1C(=O)OCC`, the inhibition in assay [1] (at 1 µM) was 0%; in assay [1] (at 20 µM), 0%; in the assay on Anti-Target ABHD10 (setting [4]), 0%; in the assay on Anti-Target ABHD10 (setting [5]), 0%; in assay [2] (PME-1, inhibition, at 1 µM), 0%; in assay [2] (PME-1, inhibition, at 20 µM), 0%. Moreover, the inhibition (in the assay with Anti-Target CES (at 1 µM); in the assay on Anti-Target CES (at 20 µM); in assay [3] (at 1 µM); in assay [3] (at 20 µM); in the assay on Anti-Target PREP (at 1 µM); with Anti-Target PREP (at 20 µM)) was 0% in each case.

For `COC(=O)N1C(=O)[C@](c2ccc(OC)cc2)(C(C)C)N1C(=O)OC`, the inhibition in assay [1] (at 1 µM) was 0%; in assay [1] (at 20 µM), 0%; with Anti-Target ABHD10 (setting [4]) it was 0%; in the assay on Anti-Target ABHD10 (setting [5]), 0%; in assay [2] (PME-1, inhibition, at 1 µM) it was 100%; in assay [2] (PME-1, inhibition, at 20 µM), 100%. Further, the inhibition with Anti-Target CES (at 1 µM) was 0%; in the assay on Anti-Target CES (at 20 µM) it was 0%; in assay [3] (at 1 µM), 0%; in assay [3] (at 20 µM), > 50%; with Anti-Target PREP (at 1 µM), 0%; in the assay with Anti-Target PREP (at 20 µM), 0%.

In the case of `CC[C@@]1(c2ccccc2C)C(=O)N(C(=O)OC)N1C(=O)OC`, the inhibition in assay [1] (at 1 µM) worked out at 0%; in assay [1] (at 20 µM), 0%; in the assay on Anti-Target ABHD10 (setting [4]), 0%; in the assay with Anti-Target ABHD10 (setting [5]) it was 0%; in assay [2] (PME-1, inhibition, at 1 µM), 50%; in assay [2] (PME-1, inhibition, at 20 µM), 100%. Also, the inhibition was > 50% in the assay with Anti-Target CES (at 1 µM); > 50% in the assay with Anti-Target CES (at 20 µM); 0% in assay [3] (at 1 µM); 0% in assay [3] (at 20 µM); 0% with Anti-Target PREP (at 1 µM); 0% in the assay with Anti-Target PREP (at 20 µM).

Consider `COC(=O)N1C(=O)[C@](c2ccccc2)(C2CCCC2)N1C(=O)OC`, for which the inhibition in assay [1] (at 1 µM) was 0%; in assay [1] (at 20 µM), > 50%; with Anti-Target ABHD10 (setting [4]) it was 0%; in the assay with Anti-Target ABHD10 (setting [5]), 0%; in assay [2] (PME-1, at 0.1 µM), 100%; in assay [2] (PME-1, inhibition, at 1 µM), 100%. For the same compound, the inhibition is 100% in assay [2] (PME-1, inhibition, at 20 µM); 0% in the assay with Anti-Target CES (at 1 µM); 0% with Anti-Target CES (at 20 µM); 0% in assay [3] (at 1 µM); > 50% in assay [3] (at 20 µM); 0% with Anti-Target PREP (at 1 µM). In the assay with Anti-Target PREP (at 20 µM), this compound registered an inhibition of 0%.

`COC(=O)N1C(=O)[C@](Cc2ccccc2)(c2ccccc2)N1C(=O)OC`: the inhibition in assay [1] (at 1 µM) is 0%; in assay [1] (at 20 µM) it was > 50%; with Anti-Target ABHD10 (setting [4]) it was 0%; in the assay on Anti-Target ABHD10 (setting [5]), 0%; in assay [2] (PME-1, inhibition, at 1 µM) it was 75%; in assay [2] (PME-1, inhibition, at 20 µM), 100%. The inhibition in the assay with Anti-Target CES (at 1 µM) was > 50%; in the assay with Anti-Target CES (at 20 µM), > 50%; in assay [3] (at 1 µM) it was 0%; in assay [3] (at 20 µM), > 50%; in the assay on Anti-Target PREP (at 1 µM), 0%; in the assay with Anti-Target PREP (at 20 µM), 0%.

With `COC(=O)N1C(=O)[C@@](c2ccccc2)(C2CCCC2)N1C(=O)OC`, the inhibition in assay [1] (at 1 µM) is 0%; in assay [1] (at 20 µM), 0%; in the assay on Anti-Target ABHD10 (setting [4]), 0%; in the assay with Anti-Target ABHD10 (setting [5]) it was 0%; in assay [2] (PME-1, at 0.1 µM), 50%; in assay [2] (PME-1, inhibition, at 1 µM), 100%. In addition, the inhibition was 100% in assay [2] (PME-1, inhibition, at 20 µM); 0% with Anti-Target CES (at 1 µM); 0% with Anti-Target CES (at 20 µM); 0% in assay [3] (at 1 µM); 0% in assay [3] (at 20 µM); 0% with Anti-Target PREP (at 1 µM). The same compound showed an inhibition with Anti-Target PREP (at 20 µM) of 0%.

Turning to `CC[C@]1(c2cccc(C)c2)C(=O)N(C(=O)OC)N1C(=O)OC`, the inhibition was 0% in assay [1] (at 1 µM); 0% in assay [1] (at 20 µM); 0% with Anti-Target ABHD10 (setting [4]); 0% in the assay with Anti-Target ABHD10 (setting [5]); 50% in assay [2] (PME-1, inhibition, at 1 µM); 100% in assay [2] (PME-1, inhibition, at 20 µM). For the same compound, the inhibition is > 50% in the assay on Anti-Target CES (at 1 µM); > 50% with Anti-Target CES (at 20 µM); 0% in assay [3] (at 1 µM); > 50% in assay [3] (at 20 µM); 0% with Anti-Target PREP (at 1 µM); 0% in the assay with Anti-Target PREP (at 20 µM).

`CC[C@]1(c2ccccc2)C(=O)N(C(=O)OC)N1C(=O)OC`: the inhibition in assay [1] (at 1 µM) worked out at 0%; in assay [1] (at 20 µM), 0%; in the assay on Anti-Target ABHD10 (setting [4]), 0%; with Anti-Target ABHD10 (setting [5]), 0%; in assay [2] (PME-1, inhibition, at 1 µM), 75%; in assay [2] (PME-1, inhibition, at 20 µM), 100%. In addition, the inhibition with Anti-Target CES (at 1 µM) is > 50%; in the assay on Anti-Target CES (at 20 µM), > 50%; in assay [3] (at 1 µM), 0%; in assay [3] (at 20 µM), 0%; in the assay with Anti-Target PREP (at 1 µM) it was 0%; with Anti-Target PREP (at 20 µM) it was 0%.

In the case of `COC(=O)N1C(=O)[C@@](c2ccccc2)(C(C)C)N1C(=O)OC`, the inhibition in assay [1] (at 1 µM) stood at 0%; in assay [1] (at 20 µM), 0%; in the assay on Anti-Target ABHD10 (setting [4]), 0%; with Anti-Target ABHD10 (setting [5]) it was 0%; in assay [2] (PME-1, inhibition, at 1 µM), 0%; in assay [2] (PME-1, inhibition, at 20 µM), 100%. The inhibition in the assay on Anti-Target CES (at 1 µM) was 0%; with Anti-Target CES (at 20 µM) it was > 50%; in assay [3] (at 1 µM) it was 0%; in assay [3] (at 20 µM) it was 0%; in the assay on Anti-Target PREP (at 1 µM), 0%; in the assay on Anti-Target PREP (at 20 µM), 0%.
